Patent US20200017449A1, “HYDANTOINS THAT MODULATE BACE-MEDIATED APP PROCESSING” (Buck Institute for Research on Aging, priority 2013, published 2020)
Where two headings read alike, the source gives them in different places. Values belong to the compound of their own block, whether it stands above or below them.

Key:
BACE1 = biological target: T1, BACE1 (Homo sapiens, UniProt P56817); assay: BACE1 P5-P5′ fluorescence substrate assay (APP-BACE1 IC50); type: biochemical; settings: Table 1; read-out: BACE IC50
T1 construct: purchased R&D 931-AS-050
T1 sequence (P56817 46-501): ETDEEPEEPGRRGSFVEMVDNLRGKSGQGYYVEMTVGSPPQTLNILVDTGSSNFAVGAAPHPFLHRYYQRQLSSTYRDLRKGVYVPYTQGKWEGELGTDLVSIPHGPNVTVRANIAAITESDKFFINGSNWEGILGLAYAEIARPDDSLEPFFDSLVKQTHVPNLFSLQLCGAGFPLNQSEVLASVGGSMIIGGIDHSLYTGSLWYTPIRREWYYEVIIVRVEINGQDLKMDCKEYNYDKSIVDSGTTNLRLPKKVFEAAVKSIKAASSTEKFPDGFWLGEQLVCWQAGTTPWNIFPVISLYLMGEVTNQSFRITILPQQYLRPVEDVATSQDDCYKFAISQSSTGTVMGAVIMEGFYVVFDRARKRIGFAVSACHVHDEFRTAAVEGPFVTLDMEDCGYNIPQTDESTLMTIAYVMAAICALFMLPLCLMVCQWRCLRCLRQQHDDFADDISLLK
Description: In one illustrative embodiment, an MBP-C125 APP695 wt fusion protein can be used as one of the substrates and the second substrate can be the commercially available P5-P5′ fluorescence substrate.
Briefly, 0.01 units of BACE1 were incubated for 1 h at room temperature with a BACE inhibitor, then the substrate was added to each well and the fluorescence was read immediately and every 30 min for 2 h. Activity was determine by dividing the fluorescence at a specific [BACE inhibitor] by the fluorescence at [BACE inhibitor]=0 μM, the % activity was plotted vs log[BACE inhibitor] to determine the APP-BACE1 using GraphPad Prism 5 (FIG. 6A)

TRX-eAPP575-624 = biological target: T2, TRX-eAPP575-624 (Homo sapiens, UniProt P05067); assay: SPR (Biacore) binding to ectodomain of APP
T2 construct: residues 575-624 of the APP ectodomain; made in house
T2 sequence (P05067 650-699): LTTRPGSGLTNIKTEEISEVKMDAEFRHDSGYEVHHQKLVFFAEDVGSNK
Description: The binding affinity of the compounds for the ectodomain of APP was determined using SPR. […] The eAPP was crosslinked linked to the CM5 Biacore chips (GE Healthcare).
FC1 served as a reference cell following a mock immobilization with buffer alone. For all cells, the flow rate was 10 μl per min. The chip was blocked with 1M ethanolamine (pH 8.5). […] Binding traces were recorded for each dilution with a binding phase of 60 seconds and a dissociation phase of 240 seconds. Each cycle was performed at 20° C. with a constant flow rate of 20 μl/min. An additional 240 seconds of buffer flow at 60 μl per min across the cells was applied as a regeneration phase to facilitate complete dissociation of the compound from the protein. The sensograms were obtained by subtraction of the reference and buffer signals using the Biacore T100 Evaluation software. The binding curves were modeled with the PRISM (Graphpad Inc).

Aβ42 = assay: Aβ lowering in brain uptake animals; type: in vivo; settings: NTg mice
Description: Compound 2 and other hydantoins were produced (see, e.g., compounds 1-5 pharmacokinetic evaluation of these hydantoins was determined in brain uptake assays using NTg mice (see, e.g., Table 1). It was also determined that Compound 1 lowered Aβ42 in the same animals at 5 mpk, while compound 3 lowered Aβ at 1 mpk.

[1] = tested on: Aβ1-42 in SH-SY5Y neuroblastoma cells; assay: Aβ1-42 in SH-SY5Y cells (ELISA); type: cell-based, human; settings: FIG. 5
Description: SH-SY5Y neuroblastoma cells were seeded at 50,000 cells/well in a 96 wells plate for 24 h. Then their medium was changed for fresh medium supplemented with desired concentration of the hydantoin compound (e.g. compound 3). After 24 h, 20 μl of the medium was added to 2 μl of the complete protease inhibitor with 1 μM EDTA and kept at 4° C. until analysis using the ELISA assay below.
ELISA kits from Invitrogen were also used to quantify Aβ1-42 (KHB3544) in duplicate. For the Aβ1-42 ultrasensitive ELISA, samples were diluted 1:2 (50 μl CSF plus 50 μl kit-provided standard diluent buffer). Assays were performed according to manufacturer's instructions. In short, standards and samples were added to a plate pre-coated with a monoclonal capture antibody specific for the amino terminus of Hu Aβ. The samples were co-incubated with a rabbit detection antibody (Ab) specific for the carboxy terminus of the Aβ species being assayed for 3 hr at room temperature overnight at 4°(Aβ1-42) with gentle rocking. After washing, bound rabbit Ab was detected using a horseradish peroxidase-labeled anti-rabbit secondary Ab. After washing again, bound HRP-anti rabbit Ab was detected colorimetrically (Spectramax 190, Molecular Devices) by the addition of a substrate solution. […]

[2] = Table 1, SPR, read-out: APP binding Kd

IC50 (BACE1): 5000 nM
Structure (SMILES): Cc1cc(C)cc(C2(c3cc(F)cc(F)c3)N=C(N)N(C)C2=O)c1 (stereo not drawn) [FAH-5, 2-amino-4-(3,5-difluorophenyl)-4-(3,5-dimethylphenyl)-1-methyl-1H-imidazol-5(4H)-one]

Structure (SMILES): Cc1cc(C2(c3cccc(F)c3)N=C(N)N(C)C2=O)ccc1OC(F)F (stereo not drawn) [FAH-17, 2-amino-4-(4-(difluoromethoxy)-3-methylphenyl)-4-(3-fluorophenyl)-1-methyl-1H-imidazol-5(4H)-one]
Kd (TRX-eAPP575-624; [2]): < 1 µM | Kd (TRX-eAPP575-624; Table 5, Secondary Screen, read-out: APP Kd): < 1 µM

Structure (SMILES): CN1C(=O)C(c2ccccc2)(c2cc(F)cc(F)c2)N=C1N (stereo not drawn) [FAH-1]
IC50 (BACE1): 3000 nM | lowering of Aβ42 in vivo (Aβ42; 5 mpk): lowered Aβ42

Structure (SMILES): CN1C(=O)C(c2ccc(OC(F)F)cc2)(c2cc(F)cc(F)c2)N=C1N (stereo not drawn) [FAH-2, 2-amino-4-(4-(difluoromethoxy)phenyl)-4-(3,5-difluorophenyl)-1-methyl-1H-imidazol-5(4H)-one]
IC50 (BACE1): 2000 nM | Kd (TRX-eAPP575-624; [2]): 8 µM

Structure (SMILES): Cc1cc(C2(c3cc(F)cc(F)c3)N=C(N)N(C)C2=O)ccc1OC(F)F (stereo not drawn) [FAH-3, 2-amino-4-(4-(difluoromethoxy)-3-methylphenyl)-4-(3,5-difluorophenyl)-1-methyl-1H-imidazol-5(4H)-one]
IC50 (BACE1): 520 nM | binding to eAPP (qualitative) (TRX-eAPP575-624; SPR / BiaCore, FIG. 4): binding to eAPP575-624 | lowering of Aβ in vivo (Aβ42; 1 mpk): lowered Aβ | inhibition of Aβ production [1]: inhibition of Aβ production

IC50 (BACE1): 2100 nM
Structure (SMILES): CN1C(=O)C(c2cc(F)cc(F)c2)(c2cccc(OC(F)F)c2)N=C1N (stereo not drawn) [FAH-4, 2-amino-4-(3-(difluoromethoxy)phenyl)-4-(3,5-difluorophenyl)-1-methyl-1H-imidazol-5(4H)-one]
